Columns and labels:
[1] = molecular target: Neuronal acetylcholine receptor subunit alpha-7 (Rattus norvegicus, UniProt Q05941); test: Binding affinity towards Nicotinic acetylcholine receptor alpha-7 using [3H]-MLA as radioligand
[2] = molecular target: Neuronal acetylcholine receptor; alpha4/beta2 (Rattus norvegicus, UniProt P09483+P12390); test: Binding affinity towards Nicotinic acetylcholine receptor alpha4-beta2 using [3H]nicotine as radioligand; type: protein-complex assay
[3] = molecular target: Neuronal acetylcholine receptor alpha3/beta4 (Homo sapiens); test: Binding affinity towards alpha3-beta4 subtype of neuronal nicotinic acetylcholine receptor (nAChR) using [3H]epibatidine as radioligand

Chain of Neuronal acetylcholine receptor subunit alpha-7 (Q05941 whole entry): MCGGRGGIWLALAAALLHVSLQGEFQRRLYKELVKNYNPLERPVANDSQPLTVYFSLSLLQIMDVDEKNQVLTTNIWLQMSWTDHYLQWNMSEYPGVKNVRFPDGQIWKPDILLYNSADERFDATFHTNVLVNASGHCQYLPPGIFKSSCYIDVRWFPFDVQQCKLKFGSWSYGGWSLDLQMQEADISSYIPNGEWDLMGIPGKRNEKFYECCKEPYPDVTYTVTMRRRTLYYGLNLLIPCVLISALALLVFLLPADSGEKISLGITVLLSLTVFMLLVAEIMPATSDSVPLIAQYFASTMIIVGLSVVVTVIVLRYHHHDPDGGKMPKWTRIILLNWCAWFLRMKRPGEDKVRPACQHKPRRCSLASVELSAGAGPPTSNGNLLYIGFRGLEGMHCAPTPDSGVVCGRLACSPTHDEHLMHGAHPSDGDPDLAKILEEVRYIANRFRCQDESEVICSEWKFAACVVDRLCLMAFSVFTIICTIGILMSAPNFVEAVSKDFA
Chain of Neuronal acetylcholine receptor; alpha4/beta2 (P09483 whole entry): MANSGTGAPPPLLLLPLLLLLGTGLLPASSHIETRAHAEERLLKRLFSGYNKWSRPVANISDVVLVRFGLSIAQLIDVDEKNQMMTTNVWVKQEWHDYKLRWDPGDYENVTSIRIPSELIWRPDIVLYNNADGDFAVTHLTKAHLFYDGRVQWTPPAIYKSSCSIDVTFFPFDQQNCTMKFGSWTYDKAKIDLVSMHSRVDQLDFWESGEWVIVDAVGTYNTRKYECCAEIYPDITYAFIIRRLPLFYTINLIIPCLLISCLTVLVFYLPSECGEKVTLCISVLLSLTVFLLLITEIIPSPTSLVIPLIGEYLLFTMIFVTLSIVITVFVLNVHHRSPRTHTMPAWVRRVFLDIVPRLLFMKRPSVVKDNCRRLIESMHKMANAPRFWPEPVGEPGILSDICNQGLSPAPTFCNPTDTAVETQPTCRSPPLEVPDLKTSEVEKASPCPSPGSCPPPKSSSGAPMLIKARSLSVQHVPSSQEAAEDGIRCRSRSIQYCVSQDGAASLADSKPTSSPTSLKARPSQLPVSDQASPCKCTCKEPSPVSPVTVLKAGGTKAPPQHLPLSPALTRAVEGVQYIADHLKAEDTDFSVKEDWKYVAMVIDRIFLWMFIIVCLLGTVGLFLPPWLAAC
Chain of Neuronal acetylcholine receptor; alpha4/beta2 (P12390 whole entry): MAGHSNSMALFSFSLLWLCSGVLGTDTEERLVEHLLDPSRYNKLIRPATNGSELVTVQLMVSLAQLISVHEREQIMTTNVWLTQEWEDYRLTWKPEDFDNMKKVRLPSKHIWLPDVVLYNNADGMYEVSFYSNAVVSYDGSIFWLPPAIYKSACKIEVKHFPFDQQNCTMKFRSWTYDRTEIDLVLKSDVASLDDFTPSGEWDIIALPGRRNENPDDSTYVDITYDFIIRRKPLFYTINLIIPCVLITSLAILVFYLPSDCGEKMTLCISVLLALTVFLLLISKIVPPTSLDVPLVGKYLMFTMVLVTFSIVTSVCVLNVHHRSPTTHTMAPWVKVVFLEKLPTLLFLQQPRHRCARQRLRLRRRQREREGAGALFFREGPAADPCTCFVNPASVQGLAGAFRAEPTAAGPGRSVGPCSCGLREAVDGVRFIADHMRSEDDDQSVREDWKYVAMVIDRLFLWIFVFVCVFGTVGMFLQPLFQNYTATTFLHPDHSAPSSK

Row | SMILES | Ki [1] | Ki [2] | Ki [3]
1 | Clc1ccc(C2=CCC[C@@H]3CC[C@H]2N3)cn1 | 2760 nM | – | –
2 | C1=C(c2ccc(-c3ccccc3)nc2)C2CCC(CC1)N2 (centres undefined) | 1310 nM | 21.4 nM | –
3 | C1=C(c2cccnc2-c2ccccc2)C2CCC(CC1)N2 (centres undefined) | > 50000 nM | > 50000 nM | > 50000 nM
4 | C1=C(c2cccnc2)C2CCC(CC1)N2 (centres undefined) | 89 nM | 0.43 nM | –
5 | C1=C(c2cnccc2-c2ccccc2)C2CCC(CC1)N2 (centres undefined) | 927 nM | 234 nM | 1990 nM
6 | C1=C(c2cncc(-c3ccccc3)c2)C2CCC(CC1)N2 (centres undefined) | 16000 nM | 4.8 nM | 468 nM
